Patent US20120083522A1, “MODULATION OF INFLAMMATORY RESPONSES BY FACTOR XI” (Isis Pharmaceuitcals, inc., priority 2009, published 2012)
In the oligonucleotide strings, read from the 5' end, every base follows the letter of its sugar. An asterisk marks phosphorothioate; unmarked linkages are phosphodiester. Other units and linkages are bracketed, terminal groups are in braces. A string of capitals states the bases alone. e = 2'-O-(2-methoxyethyl) (MOE); [5mC] = 5-methylcytosine; d = 2'-deoxy (DNA)

The substances below were run on human Factor XI mRNA (assay: Antisense inhibition in HepG2 cells by microwalk gapmers, 75 nM, lipofectin (Example 3)). Settings: HepG2 cells, 75 nM, oligonucleotides targeted to nucleobases 738 to 762 of SEQ ID NO: 1.
Assay type: cell-based
Procedure: These gapmers were designed by creating gapmers shifted slightly upstream and downstream (i.e. “microwalk”) of the original gapmers from Table 3. Gapmers were also created with various motifs, e.g. 5-10-5 MOE, 3-14-3 MOE, and 2-13-5 MOE. These gapmers were tested in vitro. Cultured HepG2 cells at a density of 10,000 cells per well were transfected using lipofectin reagent with 75 nM antisense oligonucleotide. After a treatment period of approximately 24 hours, RNA was isolated from the cells and Factor XI mRNA levels were measured by quantitative real-time PCR. Factor XI mRNA levels were adjusted according to total RNA content, as measured by RIBOGREEN®. Results are presented as percent inhibition of Factor XI, relative to untreated control cells.
The chimeric antisense oligonucleotides in Table 4 were designed as 5-10-5 MOE, 3-14-3 MOE, and 2-13-5 MOE gapmers. The first listed gapmers in Table 4 are the original gapmers (see Table 3) from which the remaining gapmers were designed via microwalk and are designated by an asterisk. The 5-10-5 gapmers are 20 nucleotides in length, wherein the central gap segment is comprised of 10 2′-deoxynucleotides and is flanked on both sides (in the 5′ and 3′ directions) by wings comprising 5 nucleotides each. The 3-14-3 gapmers are 20 nucleotides in length, wherein the central gap segment is comprised of 14 2′-deoxynucleotides and is flanked on both sides (in the 5′ and 3′ directions) by wings comprising 3 nucleotides each. The 2-13-5 gapmers are 20 nucleotides in length, wherein the central gap segment is comprised of 13 2′-deoxynucleotides. The central gap is flanked on the 5′ end with a wing comprising 2 nucleotides and on the 3′ end with a wing comprising 5 nucleotides. For each of the motifs (5-10-5, 3-14-3, and 2-13-5), each nucleotide in the 5′ wing segment and each nucleotide in the 3′ wing segment has a 2′-MOE modification. The internucleoside linkages throughout each gapmer are phosphorothioate (P═S) linkages. All cytidine residues throughout each gapmer are 5-methylcytidines. “Target start site” indicates the 5′-most nucleotide to which the gapmer is targeted. “Target stop site” indicates the 3′-most nucleotide to which the gapmer is targeted. Each gapmer listed in Table 4 is targeted to SEQ ID NO: 1 (GENBANK Accession No. NM_000128.3).

| Substance | % inhibition of human Factor XI mRNA levels [%] |
| --- | --- |
| 416975 (antisense e[5mC]*e[5mC]*dG*dT*dG*d[5mC]*dA*dT*d[5mC]*dT*dT*dT*d[5mC]*dT*dT*eG*eG*e[5mC]*eA*eT) [compound 416975] | 87 |
| 416976 (antisense eT*e[5mC]*d[5mC]*dG*dT*dG*d[5mC]*dA*dT*d[5mC]*dT*dT*dT*d[5mC]*dT*eT*eG*eG*e[5mC]*eA) [compound 416976] | 83 |
| 416977 (antisense eA*eT*d[5mC]*d[5mC]*dG*dT*dG*d[5mC]*dA*dT*d[5mC]*dT*dT*dT*d[5mC]*eT*eT*eG*eG*e[5mC]) [compound 416977] | 82 |
| 416978 (antisense e[5mC]*eA*dT*d[5mC]*d[5mC]*dG*dT*dG*d[5mC]*dA*dT*d[5mC]*dT*dT*dT*e[5mC]*eT*eT*eG*eG) [compound 416978] | 76 |
| 416979 (antisense eT*e[5mC]*dA*dT*d[5mC]*d[5mC]*dG*dT*dG*d[5mC]*dA*dT*d[5mC]*dT*dT*eT*e[5mC]*eT*eT*eG) [compound 416979] | 63 |
| 416980 (antisense eG*eT*d[5mC]*dA*dT*d[5mC]*d[5mC]*dG*dT*dG*d[5mC]*dA*dT*d[5mC]*dT*eT*eT*e[5mC]*eT*eT) [compound 416980] | 87 |

Same assay, conditions: HepG2 cells, 75 nM, oligonucleotides targeted to nucleobases 1018 to 1042 of SEQ ID NO: 1

| Substance | % inhibition of human Factor XI mRNA levels [%] |
| --- | --- |
| 416981 (antisense e[5mC]*e[5mC]*dG*dG*dG*dA*dT*dG*dA*dT*dG*dA*dG*dT*dG*e[5mC]*eA*eG*eA*eT) [compound 416981] | 87 |
| 416982 (antisense eA*e[5mC]*d[5mC]*dG*dG*dG*dA*dT*dG*dA*dT*dG*dA*dG*dT*eG*e[5mC]*eA*eG*eA) [compound 416982] | 84 |
| 416983 (antisense eA*eA*d[5mC]*d[5mC]*dG*dG*dG*dA*dT*dG*dA*dT*dG*dA*dG*eT*eG*e[5mC]*eA*eG) [compound 416983] | 86 |

Same assay, conditions: HepG2 cells, 75 nM, oligonucleotides targeted to nucleobases 1062 to 1091 of SEQ ID NO: 1

| Substance | % inhibition of human Factor XI mRNA levels [%] |
| --- | --- |
| 416986 (antisense eA*eT*dT*d[5mC]*dT*dT*dT*dG*dG*dG*d[5mC]*d[5mC]*dA*dT*dT*e[5mC]*e[5mC]*eT*eG*eG) [compound 416986] | 88 |
| 416987 (antisense eG*eA*dT*dT*d[5mC]*dT*dT*dT*dG*dG*dG*d[5mC]*d[5mC]*dA*dT*eT*e[5mC]*e[5mC]*eT*eG) [compound 416987] | 80 |
| 416988 (antisense eA*eG*dA*dT*dT*d[5mC]*dT*dT*dT*dG*dG*dG*d[5mC]*d[5mC]*dA*eT*eT*e[5mC]*e[5mC]*eT) [compound 416988] | 76 |
| 416990 (antisense eT*eG*dA*dG*dA*dT*dT*d[5mC]*dT*dT*dT*dG*dG*dG*d[5mC]*e[5mC]*eA*eT*eT*e[5mC]) [compound 416990] | 76 |
| 416991 (antisense eT*eT*dG*dA*dG*dA*dT*dT*d[5mC]*dT*dT*dT*dG*dG*dG*e[5mC]*e[5mC]*eA*eT*eT) [compound 416991] | 87 |
| 416992 (antisense eT*eT*dT*dG*dA*dG*dA*dT*dT*d[5mC]*dT*dT*dT*dG*dG*eG*e[5mC]*e[5mC]*eA*eT) [compound 416992] | 84 |
| 416994 (antisense eT*e[5mC]*dT*dT*dT*dG*dA*dG*dA*dT*dT*d[5mC]*dT*dT*dT*eG*eG*eG*e[5mC]*e[5mC]) [compound 416994] | 83 |
| 416995 (antisense eT*eT*d[5mC]*dT*dT*dT*dG*dA*dG*dA*dT*dT*d[5mC]*dT*dT*eT*eG*eG*eG*e[5mC]) [compound 416995] | 64 |
| 416996 (antisense eT*eT*dT*d[5mC]*dT*dT*dT*dG*dA*dG*dA*dT*dT*d[5mC]*dT*eT*eT*eG*eG*eG) [compound 416996] | 22 |

Same assay, conditions: HepG2 cells, 75 nM, oligonucleotides targeted to nucleobases 1275 to 1318 of SEQ ID NO: 1

| Substance | % inhibition of human Factor XI mRNA levels [%] |
| --- | --- |
| 416939 (antisense e[5mC]*eA*eG*d[5mC]*dG*dG*dA*d[5mC]*dG*dG*d[5mC]*dA*dT*dT*dG*dG*dT*eG*e[5mC]*eA) [compound 416939] | 88 |
| 416940 (antisense eG*e[5mC]*eA*dG*d[5mC]*dG*dG*dA*d[5mC]*dG*dG*d[5mC]*dA*dT*dT*dG*dG*eT*eG*e[5mC]) [compound 416940] | 92 |
| 416942 (antisense eT*eG*eG*d[5mC]*dA*dG*d[5mC]*dG*dG*dA*d[5mC]*dG*dG*d[5mC]*dA*dT*dT*eG*eG*eT) [compound 416942] | 85 |
| 416943 (antisense e[5mC]*eT*eG*dG*d[5mC]*dA*dG*d[5mC]*dG*dG*dA*d[5mC]*dG*dG*d[5mC]*dA*dT*eT*eG*eG) [compound 416943] | 92 |
| 416944 (antisense eA*e[5mC]*eT*dG*dG*d[5mC]*dA*dG*d[5mC]*dG*dG*dA*d[5mC]*dG*dG*d[5mC]*dA*eT*eT*eG) [compound 416944] | 83 |
| 416997 (antisense eA*e[5mC]*dA*dG*dT*dT*dT*d[5mC]*dT*dG*dG*d[5mC]*dA*dG*dG*e[5mC]*e[5mC]*eT*e[5mC]*eG) [compound 416997] | 84 |
| 416998 (antisense e[5mC]*eA*d[5mC]*dA*dG*dT*dT*dT*d[5mC]*dT*dG*dG*d[5mC]*dA*dG*eG*e[5mC]*e[5mC]*eT*e[5mC]) [compound 416998] | 88 |
| 417001 (antisense eG*eT*dG*d[5mC]*dA*d[5mC]*dA*dG*dT*dT*dT*d[5mC]*dT*dG*dG*e[5mC]*eA*eG*eG*e[5mC]) [compound 417001] | 83 |
| 417004 (antisense eT*eT*dG*dG*dT*dG*d[5mC]*dA*d[5mC]*dA*dG*dT*dT*dT*d[5mC]*eT*eG*eG*e[5mC]*eA) [compound 417004] | 86 |
| 417005 (antisense eA*eT*dT*dG*dG*dT*dG*d[5mC]*dA*d[5mC]*dA*dG*dT*dT*dT*e[5mC]*eT*eG*eG*e[5mC]) [compound 417005] | 79 |
| 417006 (antisense e[5mC]*eA*dT*dT*dG*dG*dT*dG*d[5mC]*dA*d[5mC]*dA*dG*dT*dT*eT*e[5mC]*eT*eG*eG) [compound 417006] | 81 |
| 417007 (antisense eG*e[5mC]*dA*dT*dT*dG*dG*dT*dG*d[5mC]*dA*d[5mC]*dA*dG*dT*eT*eT*e[5mC]*eT*eG) [compound 417007] | 82 |
| 417008 (antisense eG*eG*d[5mC]*dA*dT*dT*dG*dG*dT*dG*d[5mC]*dA*d[5mC]*dA*dG*eT*eT*eT*e[5mC]*eT) [compound 417008] | 82 |
| 417009 (antisense e[5mC]*eG*dG*d[5mC]*dA*dT*dT*dG*dG*dT*dG*d[5mC]*dA*d[5mC]*dA*eG*eT*eT*eT*e[5mC]) [compound 417009] | 85 |
| 417010 (antisense eA*e[5mC]*dG*dG*d[5mC]*dA*dT*dT*dG*dG*dT*dG*d[5mC]*dA*d[5mC]*eA*eG*eT*eT*eT) [compound 417010] | 81 |
| 417011 (antisense eG*eA*d[5mC]*dG*dG*d[5mC]*dA*dT*dT*dG*dG*dT*dG*d[5mC]*dA*e[5mC]*eA*eG*eT*eT) [compound 417011] | 86 |
